The source of these data is patent publication US6759385B1, “Methods to treat undesirable immune responses” (Regents of the University of Minnesota, priority 1997, dated 2004).

Assay [1] relates to established EMG in B6 mice. The assay can be described thus: Subcutaneous treatment, post-priming protocol, established EMG (Example IV). Particulars: at 44 weeks, s.c. post-priming protocol. Type of assay: in vivo, mouse. Here is the method:
B6 mice (Jackson Laboratory, Bar Harbor, Me.) were injected s.c. with 100 μl of PBS containing increasing amounts of a pool of the same amount in weight of each of the three epitope peptides Tα150-169, Tα180-200 and Tα360-378 (‘peptide pool’), or 200 μg of Tα150-169 alone, or 100 μl of PBS containing 0.1% Triton X-100 and 10 μg of solubilized TAChR. Two different treatment schedules were used, referred to as prevention and post-priming protocols. In the prevention protocol, the peptides or solubilized TAChR were administered twice per week for 14 weeks, starting 2 weeks before the beginning of the immunization with TAChR. In the post-priming protocol, peptides or solubilized TAChR were administered twice per week for […], starting 8 weeks after the beginning of the TAChR immunization. Control mice received 100 μl of peptide-free PBS, following the same schedules.
Immunization 8-10 week old mice were immunized by s.c. injections, along the back and at the base of the tail, of TAChR (a total of 50 μg in 100 μl of PBS for each immunization) emulsified in an equal volume of CFA for the first injection, and IFA for the following two boosts. The mice were injected for a total of three times at 3-4 week intervals. At the end of the observation period, the mice received a third boost, and were sacrificed 5-7 days later. Control mice were injected with clean PBS in the appropriate adjuvant.
Evaluation of the symptoms of EMG The EMG symptoms were quantified using a forced exercise test sensitized by i.p. injection of a minute amount of pancuronium bromide (0.03 mg/kg) just before the test (Karachunski et al., 1995). The mouse hangs from a grid suspended above a soft padding, and the time it takes the mouse to fall three times (‘holding time’) was measured. The test is parametric, and gives a quantitative assessment of the mouse weakness. The myasthenic nature of the weakness was verified by injecting i.p. edrophonium chloride (Reversol, Organon, West Orange, N.J.), which is a cholinesterase inhibitor. […] The mice were tested without knowledge of their treatment. […]

In assay [2] the test system is EMG in IL-4 KO mice immunized with TAChR. The assay can be described thus: Transfer of CD4+ cells from peptide-treated B6 mice into IL-4 KO mice, EMG. It counts as in vivo, mouse. As to conditions: cells three times, three TAChR immunizations, 14 weeks. Here is the method: CD4^+ cells from wild type B6 mice that sniffed TACBR CD4^+ epitopes protect IL-4 KO R6 mice from development of EMG. Spleen CD4^+ cells were purified from wild type B6 mice that had sniffed a pool of the AChR a subunit peptide epitopes α50-169, α81-200 and α361-380, or peptide-free PBS (sham-treated). 10×10^6 CD4^+ cells from peptide-treated or sham-treated B6 mice to IL-4 KO B6 mice were administered i.v. (blue arrowhead in FIG. 25), just prior to a single immunization with TAChR (red arrowhead in FIG. 25). The strength of the mice was measured every 2 weeks, for 20 weeks after the TAChR immunization (FIG. 25). […] The lesser frequency of EMG as compared to the experiments described above is likely due to the use of a single immunizing injection of TAChR, or to variability in the susceptibility to EMG in different batch of IL-4 KO mice, similar to that described in other mouse strains.
All IL-4 KO mice treated with CD4^+ cells from sham-treated B6 donors developed EMG from week four onwards (FIG. 26). […] By week 10 (i.e., two weeks after the second TAChR immunization). […]

For the substance “peptide Tα150-169: synthetic peptide corresponding to residues 150-169 of the TAChR α subunit (TYDGTKVSISPESDRPDLST; UniProt P02710 174-193, looked up, fragment)”, the “mice with holding times of 6.2 or less” value in assay [1] amounted to 6%. The “recipients that developed EMG” value in assay [2] is recorded as “Only one mouse”.
